Reference: publication doi:10.1101/2024.08.13.607785v1 (biorxiv, 2024)
Read-outs that look alike come from different tables or passages of the source. Each block holds one molecule with its values, some of them ahead of it.

Key:
Assay in all cases: biochemical
Set-up in all cases: species or system human cell line lysate
[1] = biological target: Fructosamine-3-kinase ; FN3K ; Q9H479 (Homo sapiens, UniProt Q9H479)
[2] = biological target: Casein kinase I isoform epsilon ; CSNK1E ; P49674 (Homo sapiens, UniProt P49674)
[3] = biological target: Dual specificity protein kinase TTK ; TTK ; P33981 (Homo sapiens, UniProt P33981)
Sequence of Dual specificity protein kinase TTK ; TTK ; P33981 (P33981 whole entry): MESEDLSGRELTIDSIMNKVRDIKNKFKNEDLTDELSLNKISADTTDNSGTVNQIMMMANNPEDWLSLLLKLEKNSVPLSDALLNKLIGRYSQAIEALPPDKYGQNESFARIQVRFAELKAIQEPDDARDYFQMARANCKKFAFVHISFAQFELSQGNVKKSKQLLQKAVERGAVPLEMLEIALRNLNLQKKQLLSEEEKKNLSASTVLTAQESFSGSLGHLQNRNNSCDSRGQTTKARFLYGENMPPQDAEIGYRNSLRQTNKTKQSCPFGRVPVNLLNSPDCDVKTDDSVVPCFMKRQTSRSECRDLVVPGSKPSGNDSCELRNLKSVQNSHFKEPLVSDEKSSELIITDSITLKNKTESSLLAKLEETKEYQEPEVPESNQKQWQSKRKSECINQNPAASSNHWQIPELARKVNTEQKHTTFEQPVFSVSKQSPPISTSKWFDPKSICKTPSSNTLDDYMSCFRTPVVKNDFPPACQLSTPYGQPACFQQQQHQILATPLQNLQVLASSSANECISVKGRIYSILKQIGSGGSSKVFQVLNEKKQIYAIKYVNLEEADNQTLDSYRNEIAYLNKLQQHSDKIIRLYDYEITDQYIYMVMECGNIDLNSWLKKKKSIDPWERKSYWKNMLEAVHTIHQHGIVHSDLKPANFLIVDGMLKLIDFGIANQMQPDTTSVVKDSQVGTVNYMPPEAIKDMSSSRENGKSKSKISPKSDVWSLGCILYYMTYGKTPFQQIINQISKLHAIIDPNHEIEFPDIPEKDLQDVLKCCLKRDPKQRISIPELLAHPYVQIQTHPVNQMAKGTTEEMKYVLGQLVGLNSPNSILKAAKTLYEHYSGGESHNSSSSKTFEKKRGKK

[4] = biological target: Microtubule-associated serine/threonine-protein kinase 3 ; MAST3 ; O60307 (Homo sapiens, UniProt O60307)
Sequence of Microtubule-associated serine/threonine-protein kinase 3 ; MAST3 ; O60307 (O60307 whole entry, one chain of several): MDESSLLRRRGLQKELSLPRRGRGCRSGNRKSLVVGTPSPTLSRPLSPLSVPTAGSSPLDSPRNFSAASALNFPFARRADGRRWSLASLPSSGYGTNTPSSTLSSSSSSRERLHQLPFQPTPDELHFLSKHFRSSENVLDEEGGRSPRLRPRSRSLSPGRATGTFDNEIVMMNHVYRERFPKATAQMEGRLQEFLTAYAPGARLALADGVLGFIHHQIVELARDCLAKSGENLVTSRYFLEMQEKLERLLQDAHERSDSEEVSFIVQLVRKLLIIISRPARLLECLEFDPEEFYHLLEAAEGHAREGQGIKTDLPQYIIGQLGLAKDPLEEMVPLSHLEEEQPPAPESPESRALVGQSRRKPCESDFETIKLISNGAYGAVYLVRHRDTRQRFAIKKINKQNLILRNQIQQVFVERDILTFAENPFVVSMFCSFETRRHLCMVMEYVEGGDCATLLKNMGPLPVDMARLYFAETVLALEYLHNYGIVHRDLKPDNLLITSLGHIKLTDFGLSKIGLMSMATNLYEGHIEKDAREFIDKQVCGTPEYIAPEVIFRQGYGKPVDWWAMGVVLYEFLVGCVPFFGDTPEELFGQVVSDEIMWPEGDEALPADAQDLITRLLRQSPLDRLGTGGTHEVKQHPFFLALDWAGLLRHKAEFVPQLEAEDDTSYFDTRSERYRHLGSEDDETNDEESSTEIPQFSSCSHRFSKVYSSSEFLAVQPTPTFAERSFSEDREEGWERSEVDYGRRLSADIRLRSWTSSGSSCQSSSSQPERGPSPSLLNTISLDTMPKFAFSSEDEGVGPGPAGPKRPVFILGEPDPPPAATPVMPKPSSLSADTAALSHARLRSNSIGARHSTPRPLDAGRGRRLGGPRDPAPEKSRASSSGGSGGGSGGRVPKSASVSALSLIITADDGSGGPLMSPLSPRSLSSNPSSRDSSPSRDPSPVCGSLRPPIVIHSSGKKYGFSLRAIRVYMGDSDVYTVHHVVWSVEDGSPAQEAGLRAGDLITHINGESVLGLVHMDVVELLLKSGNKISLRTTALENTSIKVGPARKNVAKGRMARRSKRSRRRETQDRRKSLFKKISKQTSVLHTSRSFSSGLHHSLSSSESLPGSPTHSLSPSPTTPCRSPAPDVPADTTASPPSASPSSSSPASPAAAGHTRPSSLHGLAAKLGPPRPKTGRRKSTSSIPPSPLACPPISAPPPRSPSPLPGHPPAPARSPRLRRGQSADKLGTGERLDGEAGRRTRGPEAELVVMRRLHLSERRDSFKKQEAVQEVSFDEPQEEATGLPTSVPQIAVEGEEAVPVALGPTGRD

[5] = biological target: Rho-associated protein kinase 2 ; ROCK2 ; O75116 (Homo sapiens, UniProt O75116)
[6] = biological target: EKC/KEOPS complex subunit TP53RK ; TP53RK ; Q96S44 (Homo sapiens, UniProt Q96S44)
[7] = biological target: Serine/threonine-protein kinase Sgk3 ; SGK3 ; Q96BR1 (Homo sapiens, UniProt Q96BR1)
Sequence of Serine/threonine-protein kinase Sgk3 ; SGK3 ; Q96BR1 (Q96BR1 whole entry, canonical isoform, one chain of several): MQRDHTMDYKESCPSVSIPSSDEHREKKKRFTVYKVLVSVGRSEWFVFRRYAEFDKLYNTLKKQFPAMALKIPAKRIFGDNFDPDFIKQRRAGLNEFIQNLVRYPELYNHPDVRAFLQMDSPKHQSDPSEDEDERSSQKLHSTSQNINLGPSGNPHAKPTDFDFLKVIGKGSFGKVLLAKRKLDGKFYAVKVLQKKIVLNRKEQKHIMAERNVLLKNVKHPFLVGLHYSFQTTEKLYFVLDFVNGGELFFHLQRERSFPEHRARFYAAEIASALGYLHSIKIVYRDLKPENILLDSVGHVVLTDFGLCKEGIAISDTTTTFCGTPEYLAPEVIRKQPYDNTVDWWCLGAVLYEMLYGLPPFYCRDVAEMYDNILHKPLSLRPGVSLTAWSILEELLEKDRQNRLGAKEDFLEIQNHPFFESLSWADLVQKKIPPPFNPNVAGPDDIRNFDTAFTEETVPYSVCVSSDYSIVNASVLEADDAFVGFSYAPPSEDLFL

[8] = biological target: Isoform 2 of Focal adhesion kinase 1 ; PTK2 ; Q05397-2 (Homo sapiens, UniProt Q05397)
Sequence of Isoform 2 of Focal adhesion kinase 1 ; PTK2 ; Q05397-2 (Q05397 whole entry, canonical isoform): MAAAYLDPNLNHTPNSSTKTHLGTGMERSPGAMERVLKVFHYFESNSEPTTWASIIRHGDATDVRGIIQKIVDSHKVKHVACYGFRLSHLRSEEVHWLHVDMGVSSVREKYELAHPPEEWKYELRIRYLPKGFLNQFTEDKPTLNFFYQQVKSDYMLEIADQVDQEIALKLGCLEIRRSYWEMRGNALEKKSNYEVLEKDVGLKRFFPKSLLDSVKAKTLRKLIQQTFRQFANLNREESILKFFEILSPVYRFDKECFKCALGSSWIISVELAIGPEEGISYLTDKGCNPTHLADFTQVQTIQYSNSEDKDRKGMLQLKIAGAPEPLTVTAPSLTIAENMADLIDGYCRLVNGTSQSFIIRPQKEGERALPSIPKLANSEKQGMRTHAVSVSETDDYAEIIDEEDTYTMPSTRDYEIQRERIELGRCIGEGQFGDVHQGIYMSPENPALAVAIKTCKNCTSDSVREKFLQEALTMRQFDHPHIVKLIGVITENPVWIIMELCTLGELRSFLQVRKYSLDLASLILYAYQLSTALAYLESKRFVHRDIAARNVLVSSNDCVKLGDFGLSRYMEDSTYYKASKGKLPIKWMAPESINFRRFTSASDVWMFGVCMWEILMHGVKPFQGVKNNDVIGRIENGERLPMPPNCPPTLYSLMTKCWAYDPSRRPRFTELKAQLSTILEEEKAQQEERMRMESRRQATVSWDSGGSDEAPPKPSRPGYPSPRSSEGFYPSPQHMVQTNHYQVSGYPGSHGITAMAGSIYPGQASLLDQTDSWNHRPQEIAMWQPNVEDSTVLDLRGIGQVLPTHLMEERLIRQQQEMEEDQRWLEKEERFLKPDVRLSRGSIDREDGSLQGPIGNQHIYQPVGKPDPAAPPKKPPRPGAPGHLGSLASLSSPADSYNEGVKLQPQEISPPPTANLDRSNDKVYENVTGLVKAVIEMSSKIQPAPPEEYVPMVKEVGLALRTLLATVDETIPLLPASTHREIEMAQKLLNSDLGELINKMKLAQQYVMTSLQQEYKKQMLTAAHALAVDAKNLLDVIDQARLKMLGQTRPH

[9] = biological target: RAC-beta serine/threonine-protein kinase ; AKT2 ; P31751 (Homo sapiens, UniProt P31751)
[10] = biological target: Maternal embryonic leucine zipper kinase ; MELK ; Q14680 (Homo sapiens, UniProt Q14680)
[11] = biological target: Ribosomal protein S6 kinase alpha-4 ; RPS6KA4 ; O75676 (Homo sapiens, UniProt O75676)
[12] = biological target: Phosphatidylinositol 3-kinase catalytic subunit type 3 ; PIK3C3 ; Q8NEB9 (Homo sapiens, UniProt Q8NEB9)
[13] = biological target: Isoform Mxi2 of Mitogen-activated protein kinase 14 ; MAPK14 ; Q16539-3 (Homo sapiens, UniProt Q16539)
[14] = biological target: Mitogen-activated protein kinase 15 ; MAPK15 ; Q8TD08 (Homo sapiens, UniProt Q8TD08)
[15] = biological target: Dual specificity mitogen-activated protein kinase kinase 6 ; MAP2K6 ; P52564 (Homo sapiens, UniProt P52564)
[16] = biological target: Isoform 4 of Serine/threonine-protein kinase Nek2 ; NEK2 ; P51955-4 (Homo sapiens, UniProt P51955)
[17] = biological target: Deoxycytidine kinase ; DCK ; P27707 (Homo sapiens, UniProt P27707)
[18] = biological target: Serine/threonine-protein kinase LMTK2 ; LMTK2 ; Q8IWU2 (Homo sapiens, UniProt Q8IWU2)
[19] = biological target: Pyridoxal kinase ; PDXK ; O00764 (Homo sapiens, UniProt O00764)
[20] = biological target: Serine/threonine-protein kinase TBK1 ; TBK1 ; Q9UHD2 (Homo sapiens, UniProt Q9UHD2)
Sequence of Serine/threonine-protein kinase TBK1 ; TBK1 ; Q9UHD2 (Q9UHD2 whole entry, one chain of several): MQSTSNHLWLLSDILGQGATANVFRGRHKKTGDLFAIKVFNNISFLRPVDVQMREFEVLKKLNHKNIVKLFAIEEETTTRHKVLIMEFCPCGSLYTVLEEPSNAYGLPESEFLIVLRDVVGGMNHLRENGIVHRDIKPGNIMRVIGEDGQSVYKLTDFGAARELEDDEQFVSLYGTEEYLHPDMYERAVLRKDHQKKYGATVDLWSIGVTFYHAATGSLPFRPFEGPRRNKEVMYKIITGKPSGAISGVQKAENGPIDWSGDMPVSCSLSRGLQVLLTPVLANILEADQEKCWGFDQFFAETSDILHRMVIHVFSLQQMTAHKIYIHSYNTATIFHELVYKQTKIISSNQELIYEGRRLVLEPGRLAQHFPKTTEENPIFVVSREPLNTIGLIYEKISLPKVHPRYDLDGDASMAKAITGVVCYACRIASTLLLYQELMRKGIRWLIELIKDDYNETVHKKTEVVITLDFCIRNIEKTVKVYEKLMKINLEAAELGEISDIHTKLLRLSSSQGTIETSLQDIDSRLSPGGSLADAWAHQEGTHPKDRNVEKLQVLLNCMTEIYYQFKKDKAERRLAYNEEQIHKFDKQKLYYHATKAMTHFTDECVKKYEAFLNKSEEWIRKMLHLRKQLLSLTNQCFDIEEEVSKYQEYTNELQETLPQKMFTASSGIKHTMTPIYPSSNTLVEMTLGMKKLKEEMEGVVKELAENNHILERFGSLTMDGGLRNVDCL

[21] = biological target: Dual specificity testis-specific protein kinase 1 ; TESK1 ; Q15569 (Homo sapiens, UniProt Q15569)
[22] = biological target: Isoform 4 of Casein kinase I isoform gamma-3 ; CSNK1G3 ; Q9Y6M4-4 (Homo sapiens, UniProt Q9Y6M4)
Sequence of Isoform 4 of Casein kinase I isoform gamma-3 ; CSNK1G3 ; Q9Y6M4-4 (Q9Y6M4 whole entry, canonical isoform): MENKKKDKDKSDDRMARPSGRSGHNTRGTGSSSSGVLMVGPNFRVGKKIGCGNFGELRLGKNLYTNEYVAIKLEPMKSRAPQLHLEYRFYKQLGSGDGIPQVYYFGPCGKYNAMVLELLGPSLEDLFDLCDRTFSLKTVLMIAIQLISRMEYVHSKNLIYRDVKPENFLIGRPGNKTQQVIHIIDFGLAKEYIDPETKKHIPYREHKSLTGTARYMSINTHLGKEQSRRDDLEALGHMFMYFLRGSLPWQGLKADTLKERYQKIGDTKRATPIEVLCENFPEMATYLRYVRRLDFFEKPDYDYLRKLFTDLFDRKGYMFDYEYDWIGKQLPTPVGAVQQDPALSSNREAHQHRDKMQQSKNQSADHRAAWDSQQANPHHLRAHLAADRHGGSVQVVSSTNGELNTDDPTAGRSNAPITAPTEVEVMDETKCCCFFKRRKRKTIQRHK

[23] = biological target: Serine/threonine-protein kinase 10 ; STK10 ; O94804 (Homo sapiens, UniProt O94804)
[24] = read-out: BAY-1143572 (10 µM) / %Intensity relative to DMSO
[25] = read-out: BAY-1251152 (10 µM) / %Intensity relative to DMSO

remaining activity at 10 µM [1, 24]: 114%
remaining activity at 10 µM [2, 24]: 111%
remaining activity at 10 µM [3, 24]: 86.7%
remaining activity at 10 µM [4, 24]: 79.4%
remaining activity at 10 µM [5, 24]: 120%
remaining activity at 10 µM [6, 24]: 122%
remaining activity at 10 µM [7, 24]: 148%
remaining activity at 10 µM [8, 24]: 80.9%
remaining activity at 10 µM [9, 24]: 117%
remaining activity at 10 µM [10, 24]: 116%
remaining activity at 10 µM [11, 24]: 119%
remaining activity at 10 µM [12, 24]: 119%
remaining activity at 10 µM [13, 24]: 128%
remaining activity at 10 µM [15, 24]: 142%
remaining activity at 10 µM [16, 24]: 115%
remaining activity at 10 µM [17, 24]: 121%
remaining activity at 10 µM [18, 24]: 128%
remaining activity at 10 µM [19, 24]: 139%
remaining activity at 10 µM [20, 24]: 94.7%
remaining activity at 10 µM [21, 24]: 109%
remaining activity at 10 µM [22, 24]: 113%
remaining activity at 10 µM [23, 24]: 91.3%
Compound: COc1cc(F)ccc1-c1ncnc(Nc2cccc(C[S@](C)(=N)=O)c2)n1 [BAY-1143572]
remaining activity at 10 µM [14, 24]: 98.2%

remaining activity at 10 µM [1, 25]: 106%
remaining activity at 10 µM [2, 25]: 101%
remaining activity at 10 µM [3, 25]: 82.1%
remaining activity at 10 µM [4, 25]: 82.9%
remaining activity at 10 µM [5, 25]: 110%
remaining activity at 10 µM [6, 25]: 118%
remaining activity at 10 µM [7, 25]: 139%
remaining activity at 10 µM [8, 25]: 85%
remaining activity at 10 µM [9, 25]: 119%
remaining activity at 10 µM [10, 25]: 110%
remaining activity at 10 µM [11, 25]: 104%
remaining activity at 10 µM [12, 25]: 124%
remaining activity at 10 µM [13, 25]: 119%
remaining activity at 10 µM [15, 25]: 123%
remaining activity at 10 µM [16, 25]: 114%
remaining activity at 10 µM [17, 25]: 108%
remaining activity at 10 µM [18, 25]: 126%
remaining activity at 10 µM [19, 25]: 119%
remaining activity at 10 µM [20, 25]: 94%
remaining activity at 10 µM [21, 25]: 104%
remaining activity at 10 µM [22, 25]: 110%
remaining activity at 10 µM [23, 25]: 74.5%
Compound: COc1cc(F)ccc1-c1cc(Nc2cc(CS(C)(=N)=O)ccn2)ncc1F (stereo not shown) [BAY-1251152]
remaining activity at 10 µM [14, 25]: 101%
